Test results reported in ChEMBL document CHEMBL1148455, “Synthesis and use of novel ether phospholipid enantiomers to probe the molecular basis of the antitumor Effects of alkyllysophospholipids: correlation of differential activation of c-Jun NH(2)-terminal protein kinase with antiproliferative effects in neuronal tumor cells” (2004).
Activity calls are given as the source filed them. The calls are words filed in the database; no cut-off is given here.

Tests used:
[1] = system: MCF7; assay: Percentage viability of compound against MCF-7 cell line; format: functional, Homo sapiens
[2] = system: MDA-MB-468; assay: Percentage viability of compound against MDA-MB-468 cell line; 92-94%; format: functional, Homo sapiens
[3] = system: SK-N-MC; assay: Percentage viability of compound against SK-N-MC cell line; 92-94%; format: functional, Homo sapiens
[4] = system: T47D; assay: Percentage viability of compound against T47D cell line; 92-94%; format: functional, Homo sapiens
[5] = system: MCF7; assay: Percentage viability of compound against MCF-7 cell line; NE means No effect; format: functional, cell-based; conditions: Homo sapiens
[6] = system: MDA-MB-468; assay: Percentage viability of compound against MDA-MB-468 cell line; NE means No effect; format: functional, cell-based; conditions: Homo sapiens
[7] = system: SK-N-MC; assay: Percentage viability of compound against SK-N-MC cell line; NE means No effect; format: functional, cell-based; conditions: Homo sapiens
[8] = system: T47D; assay: Percentage viability of compound against T47D cell line; NE means No effect; format: functional, cell-based; conditions: Homo sapiens

| Structure (SMILES) | Viability [1] [%] | Viability [2] [%] | Viability [3] [%] | Viability [4] [%] | Viability [5] | Viability [6] | Viability [7] | Viability [8] |
| --- | --- | --- | --- | --- | --- | --- | --- | --- |
| CCCCCCCCCCCCCCCCOC[C@@H](/C=C/P(=O)([O-])OCC[N+](C)(C)C)OC | 61 | <94 | <94 | <94 | – | – | – | – |
| CCCCCCCCCCCCCCCCOC[C@H](/C=C/P(=O)([O-])OCC[N+](C)(C)C)OC | – | – | – | – | inactive | inactive | inactive | inactive |
